# Results reported in ChEMBL document CHEMBL2074085, “P-glycoprotein (P-gp/MDR1)-mediated efflux of sex-steroid hormones and modulation of P-gp expression in vitro” (Pharm Res, 2004).
# Biological target: ATP-dependent translocase ABCB1 (Homo sapiens, UniProt P08183)
# Assay: TP_TRANSPORTER: transepithelial transport in MDR1-expressing MDCK cells
# Assay type: functional, cell-based
# Conditions: dog
# ATP-dependent translocase ABCB1, sequence (P08183 whole entry): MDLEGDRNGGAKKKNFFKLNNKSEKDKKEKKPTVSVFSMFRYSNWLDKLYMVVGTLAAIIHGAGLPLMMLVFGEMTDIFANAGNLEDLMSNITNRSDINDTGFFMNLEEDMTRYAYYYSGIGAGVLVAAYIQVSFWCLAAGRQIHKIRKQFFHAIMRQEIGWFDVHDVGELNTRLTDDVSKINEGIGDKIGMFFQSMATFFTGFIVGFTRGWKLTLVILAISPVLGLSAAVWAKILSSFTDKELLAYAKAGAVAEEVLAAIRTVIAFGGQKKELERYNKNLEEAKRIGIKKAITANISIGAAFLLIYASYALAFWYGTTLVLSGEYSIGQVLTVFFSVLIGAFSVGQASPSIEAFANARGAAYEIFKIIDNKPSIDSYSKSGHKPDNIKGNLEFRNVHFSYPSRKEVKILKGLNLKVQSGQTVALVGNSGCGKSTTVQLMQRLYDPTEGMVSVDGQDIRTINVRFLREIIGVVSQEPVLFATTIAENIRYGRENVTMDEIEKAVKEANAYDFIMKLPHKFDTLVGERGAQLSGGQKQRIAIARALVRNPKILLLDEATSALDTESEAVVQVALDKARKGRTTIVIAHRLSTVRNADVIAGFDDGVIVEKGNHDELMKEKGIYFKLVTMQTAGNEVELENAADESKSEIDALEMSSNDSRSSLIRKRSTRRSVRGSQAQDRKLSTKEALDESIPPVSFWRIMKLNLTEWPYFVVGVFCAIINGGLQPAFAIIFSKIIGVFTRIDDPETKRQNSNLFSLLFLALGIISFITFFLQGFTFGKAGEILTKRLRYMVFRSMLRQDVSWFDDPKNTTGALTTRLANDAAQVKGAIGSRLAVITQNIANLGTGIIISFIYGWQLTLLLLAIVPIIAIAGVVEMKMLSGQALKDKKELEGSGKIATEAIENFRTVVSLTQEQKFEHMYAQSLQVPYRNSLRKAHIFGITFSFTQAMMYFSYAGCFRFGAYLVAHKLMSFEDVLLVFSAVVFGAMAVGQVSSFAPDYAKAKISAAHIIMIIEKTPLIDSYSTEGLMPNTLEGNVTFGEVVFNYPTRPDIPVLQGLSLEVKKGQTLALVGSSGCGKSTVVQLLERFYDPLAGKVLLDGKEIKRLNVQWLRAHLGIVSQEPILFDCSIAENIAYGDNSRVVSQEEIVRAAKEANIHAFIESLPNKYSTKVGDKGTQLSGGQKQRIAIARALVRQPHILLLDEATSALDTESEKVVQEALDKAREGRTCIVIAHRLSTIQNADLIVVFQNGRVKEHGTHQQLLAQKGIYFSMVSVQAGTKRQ
row,Structure (SMILES),Activity
1,C[C@]12CC[C@@H]3c4ccc(O)cc4CC[C@H]3[C@@H]1CC[C@@H]2O [ESTRADIOL],is not a substrate [-]
2,CC(=O)[C@H]1CC[C@H]2[C@@H]3CCC4=CC(=O)CC[C@]4(C)[C@H]3CC[C@]12C [PROGESTERONE],is not a substrate [-]
3,C[C@]12CC[C@@H]3c4ccc(O)cc4CC[C@H]3[C@@H]1C[C@@H](O)[C@@H]2O [ESTRIOL],substrate [+]

# Continued, values first:
row,Activity,Structure (SMILES)
1,substrate [+],C#C[C@]1(O)CC[C@H]2[C@@H]3CCc4cc(O)ccc4[C@H]3CC[C@@]21C [ETHINYL ESTRADIOL]
2,substrate [+],C[C@]12CC[C@@H]3c4ccc(O)cc4CC[C@H]3[C@@H]1CCC2=O [ESTRONE]
3,is not a substrate [-],C#C[C@]1(O)CC[C@H]2[C@@H]3CCC4=CC(=O)CC[C@@H]4[C@H]3CC[C@@]21C [NORETHINDRONE]
